Measurements taken from article PMC10467108, “Of Seven New K^+ Channel Inhibitor Peptides of Centruroides bonito, α-KTx 2.24 Has a Picomolar Affinity for Kv1.2” (Toxins, 2023).
Like-named read-outs stand apart in the source and are kept apart here. Where a SMILES comes first, the peptide text is derived from it. Bridges are numbered along the chain shown (N, C = ends).

Assays:
Assay type in all cases: cell-based
hKv1.2 = target: T1, hKv1.2 (Homo sapiens, UniProt P16389); experiment: Whole-cell patch-clamp of Kv1.2 currents in transiently transfected CHO cells; settings: for Kd / Hill coefficient H, Kv1.2 block: Hill fit of RCF vs toxin concentration, n ≥ 3; for Kd: cumulative application, equilibrium block, pulses to +50 mV from -120 mV, read-out: Kd for Kv1.2
T1 construct: GFP (C); host or cells: CHO cells, transient transfection (Lipofectamine 2000)
T1 sequence (P16389 whole entry): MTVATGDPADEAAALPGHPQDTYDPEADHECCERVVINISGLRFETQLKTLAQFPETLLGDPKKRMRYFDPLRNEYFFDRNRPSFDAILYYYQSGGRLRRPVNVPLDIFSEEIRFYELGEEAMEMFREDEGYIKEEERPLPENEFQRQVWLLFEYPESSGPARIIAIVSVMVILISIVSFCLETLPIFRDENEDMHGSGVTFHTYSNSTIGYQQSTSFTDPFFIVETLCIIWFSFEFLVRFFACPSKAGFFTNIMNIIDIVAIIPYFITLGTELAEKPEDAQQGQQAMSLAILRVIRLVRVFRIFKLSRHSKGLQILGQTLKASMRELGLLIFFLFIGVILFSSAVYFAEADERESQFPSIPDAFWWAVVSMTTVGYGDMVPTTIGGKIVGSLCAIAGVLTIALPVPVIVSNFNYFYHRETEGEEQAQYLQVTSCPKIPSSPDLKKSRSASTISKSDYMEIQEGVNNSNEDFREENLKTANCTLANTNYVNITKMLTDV
Procedure: (§1) Macroscopic Kv1.1 and Kv1.2 currents were measured in transiently transfected CHO cells. For Kv1.3 current recording, human T lymphocytes were activated by Phytohemagglutinin A (PHA) to increase Kv1.3 channel expression, and micro-pipettes were filled with Ca^2+-free solution to prevent KCa3.1 channel activation. K^+ currents were evoked by applying 15-ms-long depolarization pulses to +50 mV from a holding potential of −120 mV except for Kv1.2, as it has highly variable activation kinetics; therefore, 15–500 ms-long pulses were applied to maximize the open probability of Kv1.2 channel. CboK peptide toxins were dissolved in a freshly prepared extracellular solution and applied to the whole-cell patch-clamped cells using a micro perfusion system at 200 μL/min flow rate.
(§2) CHO cells were transiently transfected by using Lipofectamine 2000 kit (Invitrogen, Carlsbad, CA, USA), as per the manufacturer’s protocol with vector pCMV6-AC-GFP (cat# RG211000 and RC222200; OriGene Technologies, Rockville, MD, USA) encoding hKv1.1 (hKCNA1 gene) or hKv1.2 (hKCNA2 gene) ion channels. Cells were grown under standard conditions in an incubator at 37 °C and 5% CO2 for 24 h. GFP-positive transfected cells were identified by utilizing a Nikon TMS fluorescence microscope (Nikon, Tokyo, Japan) using bandpass filters of 455–495 nm and 515–555 nm for excitation and emission, respectively.
(§3) The patch-clamp technique was used for measuring whole-cell currents in voltage-clamped mode using standard protocols. Electrophysiological recordings were acquired by using Multiclamp 700B amplifier connected to a personnel computer with an Axon Digidata1440 digitizer (Molecular Devices, Sunnyvale, CA, USA). Pipettes were pulled from GC150F-15 borosilicate capillaries (Harvard Apparatus, Kent, UK) having 3−5 MΩ tip resistance in the bath solution. All current recordings were carried out at room temperature (20−25 °C) and only those currents were recorded and subjected to analyses when the leak current at holding potential was <5% of peak current at the test potential. Current traces were lowpass-filtered by utilizing the built-in analog four-pole Bessel filters of the amplifiers and were sampled at 20 kHz which is at least twice the filter cut-off frequency. A gravity-driven perfusion system was used to perfuse the cells with control and test solutions and excess fluid was removed continuously through vacuum suction. The extracellular solution (bath solution) contained 145 mM NaCl, 5.5 mM glucose, 5 mM KCl, 2.5 mM CaCl2, 1 mM MgCl2, and 10 mM HEPES, having pH of 7.35 and an osmolarity between 302 and 308 mOsM/L. Toxins were dissolved in bath solution at different molar concentrations and supplemented with 0.1 mg/mL of bovine serum albumin BSA (Sigma-Aldrich, Budapest, Hungary). The intracellular solution (pipette filling) was comprised of 140 mM KF, 2 mM MgCl2, 1 mM CaCl2, 10 mM HEPES, and 11 mM EGTA, with a pH of 7.22 and an osmolarity of ~295 mOsM/L.
(§4) Generally, to evoke the Kv1.xcurrents, 15-ms-long depolarization pulses to +50 mV from a holding potential of −120 mV were applied, and the current traces were recorded after every 15 s. However, in the case of Kv1.2, due to its variable activation kinetics, the duration of the depolarization pulse was set between 15 and 500 ms to attain the saturated peak current.

Kv1.3 = target: T2, Kv1.3 (Homo sapiens, UniProt P22001); experiment: Whole-cell patch-clamp of Kv1.3 currents in PHA-activated human T lymphocytes; settings: for Hill coefficient H, Kv1.3 block: Hill fit of isochronal RCF (4 ms)
T2 construct: endogenous in cells
T2 sequence (P22001 whole entry): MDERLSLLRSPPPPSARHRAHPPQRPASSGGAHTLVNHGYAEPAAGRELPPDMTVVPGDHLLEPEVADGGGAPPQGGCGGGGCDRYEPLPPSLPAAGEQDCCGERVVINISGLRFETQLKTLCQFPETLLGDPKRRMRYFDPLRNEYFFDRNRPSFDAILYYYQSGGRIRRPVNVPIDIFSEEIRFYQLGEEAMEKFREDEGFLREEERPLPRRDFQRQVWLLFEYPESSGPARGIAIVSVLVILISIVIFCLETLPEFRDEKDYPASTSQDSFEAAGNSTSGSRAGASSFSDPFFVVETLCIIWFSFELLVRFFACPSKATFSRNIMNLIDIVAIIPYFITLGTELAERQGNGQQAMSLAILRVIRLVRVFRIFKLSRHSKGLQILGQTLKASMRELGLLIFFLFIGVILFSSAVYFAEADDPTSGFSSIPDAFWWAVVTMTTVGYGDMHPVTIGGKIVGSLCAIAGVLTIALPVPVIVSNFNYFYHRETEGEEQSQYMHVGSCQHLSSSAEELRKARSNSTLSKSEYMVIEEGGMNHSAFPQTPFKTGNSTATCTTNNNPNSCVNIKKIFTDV
Procedure: as §1
Isochronal RCF data points obtained this way (isochronal RCF = I4ms/I4ms,0 where I4ms,0 and I4ms are the currents at 4 ms time point in the absence and presence of CboK peptides, respectively) at different toxin concentrations were fitted with the Hill equation to obtain concentration–response curves as shown in Figure 6H.
Human peripheral venous blood was acquired from anonymous healthy volunteers from the blood bank. Blood samples were collected by having approval from the Ethical Committee of the Hungarian Medical Research Council (36255-6/2017/EKU). PBMCs were separated by Histopaque 1077 (Sigma-Aldrich, Budapest, Hungary) separation technique, and isolated cells, at the density of 5 × 10^5 cells, were cultured in RPMI 1640 media (Gibco, Grand Island, NY, USA) supplemented with 10% FBS (Sigma-Aldrich, Budapest, Hungary), 2 mM L-glutamine, […], and […] penicillin in a humidified incubator at 37 °C and 5% CO2 for 3–6 days. A measure of 2, 5, or 10 μg/mL of Phytohemagglutinin A (PHA) (Sigma-Aldrich, Budapest, Hungary) was added in cultured cells to activate the PBMCs and upregulate the Kv1.3 expression.
as §3, with “suction.” for “suction. The extracellular solution (bath solution) contained 145 mM NaCl, 5.5 mM glucose, 5 mM KCl, 2.5 mM CaCl2, 1 mM MgCl2, and 10 mM HEPES, having pH of 7.35 and an osmolarity between 302 and 308 mOsM/L. Toxins were dissolved in bath solution at different molar concentrations and supplemented with 0.1 mg/mL of bovine serum albumin BSA (Sigma-Aldrich, Budapest, Hungary). The intracellular solution (pipette filling) was comprised of 140 mM KF, 2 mM MgCl2, 1 mM CaCl2, 10 mM HEPES, and 11 mM EGTA, with a pH of 7.22 and an osmolarity of ~295 mOsM/L.”

hKv1.1 = target: T3, hKv1.1 (Homo sapiens, UniProt Q09470); experiment: Whole-cell patch-clamp of Kv1.1 currents in transiently transfected CHO cells
T3 construct: host or cells: CHO cells, transient transfection (Lipofectamine 2000)
T3 sequence (Q09470 whole entry): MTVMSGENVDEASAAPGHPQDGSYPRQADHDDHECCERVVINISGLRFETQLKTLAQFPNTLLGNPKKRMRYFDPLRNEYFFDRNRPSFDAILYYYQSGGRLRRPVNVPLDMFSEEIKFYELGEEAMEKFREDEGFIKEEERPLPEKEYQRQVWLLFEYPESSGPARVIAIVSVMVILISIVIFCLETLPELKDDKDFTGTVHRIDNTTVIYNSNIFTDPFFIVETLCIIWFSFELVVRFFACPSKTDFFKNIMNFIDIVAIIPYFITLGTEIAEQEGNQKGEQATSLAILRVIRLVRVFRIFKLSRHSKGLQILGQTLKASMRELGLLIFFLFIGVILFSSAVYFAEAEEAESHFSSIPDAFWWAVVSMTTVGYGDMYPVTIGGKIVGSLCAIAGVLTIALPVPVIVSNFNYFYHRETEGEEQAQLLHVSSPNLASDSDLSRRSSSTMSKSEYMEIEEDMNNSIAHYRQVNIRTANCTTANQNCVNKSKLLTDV
Procedure: as §1, §2, §3, §4

In the case of `CC[C@H](C)[C@H](NC(=O)[C@H](Cc1ccccc1)NC(=O)[C@@H](N)[C@@H](C)O)C(=O)N[C@@H](CC(N)=O)C(=O)N[C@H](C(=O)N[C@@H](CCCCN)C(=O)N[C@H]1CSSC[C@@H]2NC(=O)[C@H](CCCCN)NC(=O)[C@H](CCC(=O)O)NC(=O)CNC(=O)[C@H](C)NC(=O)[C@H](Cc3c[nH]cn3)NC(=O)[C@@H]3CCCN3C(=O)CNC(=O)[C@H](Cc3ccc(O)cc3)NC(=O)[C@H](CC(C)C)NC(=O)[C@H](CC(=O)O)NC(=O)[C@H](CCCCN)NC(=O)[C@@H]3CSSC[C@@H](C(=O)N[C@@H](Cc4ccc(O)cc4)C(=O)N[C@@H](CCCCN)C(=O)N4CCC[C@H]4C(=O)O)NC(=O)[C@H](CCCCN)NC(=O)[C@H](CSSC[C@H](NC(=O)[C@H](CCC(N)=O)NC(=O)[C@H](CCCCN)NC(=O)[C@@H]4CCCN4C(=O)[C@H](CO)NC(=O)[C@H]([C@@H](C)O)NC1=O)C(=O)N[C@@H](CC(C)C)C(=O)N[C@@H](CCCCN)C(=O)N1CCC[C@H]1C(=O)N3)NC(=O)[C@H](CCCCN)NC(=O)CNC(=O)[C@H](CC(N)=O)NC(=O)[C@H](CCSC)NC2=O)C(C)C` [CboK4] (H-TFINVKCTSPKQCLKPCKDLYGPHAGEKCMNGKCKCYKP-OH; disulfide 7-29, 13-34, 17-36 (inferred); N-terminus and C-terminus assumed), the Kd (hKv1.2) is reported as 0.125 nM, the “Hill coefficient H, Kv1.2 block” value (hKv1.2) is reported as 1.0 and the “Hill coefficient H, Kv1.3 block” value (Kv1.3; n ≥ 3) is reported as 0.94. For the same molecule, the Kd (Kv1.3; Hill fit of isochronal RCF (current at 4 ms), 15-ms pulses to +50 mV from -120 mV, n ≥ 3, read-out: Kd for Kv1.3) was 21.7 nM and the “inhibition of Kv1.1 currents” value (hKv1.1; 100 nM toxin, equilibrium block, screening summary (Figure 4D), n ≥ 3) was “less than 10%”.

For `CC[C@H](C)[C@H](N)C(=O)N[C@@H](Cc1ccccc1)C(=O)N[C@H](C(=O)N[C@@H](CC(N)=O)C(=O)N[C@H](C(=O)N[C@@H](CCCCN)C(=O)N[C@H]1CSSC[C@@H]2NC(=O)[C@H](CCCCN)NC(=O)CNC(=O)CNC(=O)[C@H](C)NC(=O)[C@H](Cc3c[nH]cn3)NC(=O)[C@H](CCC(N)=O)NC(=O)CNC(=O)[C@H](Cc3ccccc3)NC(=O)[C@H](CCCNC(=N)N)NC(=O)[C@H](CC(=O)O)NC(=O)[C@H](CCCCN)NC(=O)[C@@H]3CSSC[C@@H](C(=O)N[C@@H](Cc4ccc(O)cc4)C(=O)N4CCC[C@H]4C(=O)O)NC(=O)[C@H](CCCCN)NC(=O)[C@H](CSSC[C@H](NC(=O)[C@H](CCC(N)=O)NC(=O)[C@H](CCC(N)=O)NC(=O)[C@@H]4CCCN4C(=O)[C@H](CC(C)C)NC(=O)[C@H](CO)NC1=O)C(=O)N[C@@H](CC(C)C)C(=O)N[C@@H](CCCNC(=N)N)C(=O)N1CCC[C@H]1C(=O)N3)NC(=O)[C@H](CCCCN)NC(=O)CNC(=O)[C@H](CC(N)=O)NC(=O)[C@H]([C@@H](C)CC)NC2=O)C(C)C)[C@@H](C)CC` [CboK5] (H-IFINVKCSLPQQCLRPCKDRFGQHAGGKCINGKCKCYP-OH; disulfide 7-29, 13-34, 17-36 (inferred); N-terminus and C-terminus assumed), the “inhibition of Kv1.2 current, representative traces” value (hKv1.2; 1 nM toxin, steady-state block, representative cell (Figure 4B, 5A)) was ~ 75%, the “reversibility of Kv1.2 block” value (hKv1.2; 1 nM toxin, wash with toxin-free control solution) was “completely reversed” and the Kd (hKv1.2) was 0.376 nM. For the same molecule, the “Hill coefficient H, Kv1.2 block” value (hKv1.2) was 1.2, the Kd (Kv1.3; approximate, concentration-response data not obtained for CboK5, read-out: Kd for Kv1.3 (CboK5)) was 126 nM and the “effect on Kv1.1 currents” value (hKv1.1; 100 nM toxin) was “did not inhibit”. For the same molecule, the Kd (hKv1.1; this study, screened at 100 nM, read-out: Kd Values Kv1.1 (symbol)) was > 100 nM.

`CC[C@H](C)[C@H](NC(=O)[C@@H](N)[C@@H](C)O)C(=O)N[C@H](C(=O)N[C@@H](CC(N)=O)C(=O)N[C@H](C(=O)N[C@@H](CCCCN)C(=O)N[C@H]1CSSC[C@@H]2NC(=O)[C@H](CCCCN)NC(=O)[C@H](CCC(=O)O)NC(=O)CNC(=O)[C@H](C)NC(=O)[C@H](Cc3c[nH]cn3)NC(=O)[C@@H]3CCCN3C(=O)CNC(=O)[C@H](Cc3ccc(O)cc3)NC(=O)[C@H](CC(C)C)NC(=O)[C@H](CC(=O)O)NC(=O)[C@H](CCCCN)NC(=O)[C@@H]3CSSC[C@@H](C(=O)N[C@@H](Cc4ccc(O)cc4)C(=O)N[C@@H](CCCCN)C(=O)N[C@H](C(=O)O)C(C)C)NC(=O)[C@H](CCCCN)NC(=O)[C@H](CSSC[C@H](NC(=O)[C@H](CCC(N)=O)NC(=O)[C@H](CCCCN)NC(=O)[C@@H]4CCCN4C(=O)[C@H](CO)NC(=O)[C@H]([C@@H](C)O)NC1=O)C(=O)N[C@@H](CC(C)C)C(=O)N[C@@H](CCCCN)C(=O)N1CCC[C@H]1C(=O)N3)NC(=O)[C@H](CCCCN)NC(=O)CNC(=O)[C@H](CC(N)=O)NC(=O)[C@H](CCSC)NC2=O)C(C)C)[C@@H](C)CC` [CboK3] (H-TIINVKCTSPKQCLKPCKDLYGPHAGEKCMNGKCKCYKV-OH; disulfide 7-29, 13-34, 17-36) was tested, and the “Hill coefficient H, Kv1.2 block” value (hKv1.2) was 1.2, the “time for onset of steady-state block and complete recovery, Kv1.3” value (Kv1.3; 5, 15, 40, 100, 350 nM toxin) was ~ 1 min and the “Hill coefficient H, Kv1.3 block” value (Kv1.3; n ≥ 3) was 0.96. For the same molecule, the “reversibility of Kv1.3 block” value (Kv1.3; wash with toxin-free external solution) was “fully reversible”.

With `CC[C@H](C)[C@H](NC(=O)[C@H](Cc1ccccc1)NC(=O)[C@@H](N)[C@@H](C)O)C(=O)N[C@@H](CC(N)=O)C(=O)N[C@H](C(=O)N[C@@H](CCCCN)C(=O)N[C@H]1CSSC[C@@H]2NC(=O)[C@H](CCCCN)NC(=O)[C@H](CCC(=O)O)NC(=O)CNC(=O)[C@H](C)NC(=O)[C@H](Cc3c[nH]cn3)NC(=O)[C@@H]3CCCN3C(=O)CNC(=O)[C@H](Cc3ccc(O)cc3)NC(=O)[C@H](CC(C)C)NC(=O)[C@H](CC(=O)O)NC(=O)[C@H](CCCCN)NC(=O)[C@@H]3CSSC[C@@H](C(=O)N[C@@H](Cc4ccc(O)cc4)C(=O)N[C@@H](CCCCN)C(=O)N[C@H](C(=O)O)C(C)C)NC(=O)[C@H](CCCCN)NC(=O)[C@H](CSSC[C@H](NC(=O)[C@H](CCC(N)=O)NC(=O)[C@H](CCCCN)NC(=O)[C@@H]4CCCN4C(=O)[C@H](CO)NC(=O)[C@H]([C@@H](C)O)NC1=O)C(=O)N[C@@H](CC(C)C)C(=O)N[C@@H](CCCCN)C(=O)N1CCC[C@H]1C(=O)N3)NC(=O)[C@H](CCCCN)NC(=O)CNC(=O)[C@H](CC(N)=O)NC(=O)[C@H](CCSC)NC2=O)C(C)C` [CboK7] (H-TFINVKCTSPKQCLKPCKDLYGPHAGEKCMNGKCKCYKV-OH; disulfide 7-29, 13-34, 17-36) the “Hill coefficient H, Kv1.2 block” value (hKv1.2) was 1.3 and the “Hill coefficient H, Kv1.3 block” value (Kv1.3; n ≥ 3) was 0.8.
